Publication PMC7537881, “Biochemical screening for SARS-CoV-2 main protease inhibitors” (PLoS ONE, 2020)
“Also recorded” adds a separate entry of the source. Read-outs that look alike come from different tables or passages of the source.

How the values were obtained:
[1] = system: SARS-CoV-2; settings: cited from earlier work
[2] = system: rat; settings: cited from earlier work
[3] = molecular target: T1, SARS-CoV-2 M^pro (Severe acute respiratory syndrome coronavirus 2, UniProt P0DTD1); test: biochemical; settings: 10 μM substrate, 0.5 μM enzyme, triplicate; error = SEM
[4] = system: Vero-cell; settings: cited from earlier work
[5] = system: SARS-CoV; settings: cited from earlier work
[6] = system: SARS-CoV M^pro; settings: cited from earlier work
[7] = molecular target: T1, SARS-CoV-2 M^pro; test: biochemical; type: biochemical; settings: for Km: read-out: Km (Michaelis Menten constant)
[8] = route and species not given; ref www.pubchem.gov; cited from earlier work
[9] = system: mouse; settings: ref www.pubchem.gov, cited from earlier work
[10] = system: HIV's reverse transcriptase; parameters: method as in PMID 1517963; settings: biochemical assays; cited from earlier work
[11] = system: human immunodeficiency virus (HIV); parameters: method as in PMID 1517963; settings: cited from earlier work
[12] = molecular target: T1, SARS-CoV-2 M^pro; type: biochemical; settings: 1 μM Mpro, 10 μM substrate, 40 μM compound
[13] = system: hepatitis B virus (HBV); parameters: method as in PMID 31798562; settings: cited from earlier work
[14] = 0.5 μM Mpro, substrate 1.25-80 μM, two inhibitor concentrations, error = SEM
[15] = fitted in the kinetics experiment with this inhibitor, error = SEM
[16] = most probable model by SSQ, ΔAIC, ΔBIC (Dynafit)

Compound: COC(=O)N[C@H](C(=O)N[C@@H](Cc1ccccc1)[C@@H](O)CN(Cc1ccc(-c2ccccn2)cc1)NC(=O)[C@@H](NC(=O)OC)C(C)(C)C)C(C)(C)C [atazanavir]
- EC50 [1]: 2 µM

Compound: O=C1C(Cl)=C(Cl)C(=O)C(Cl)=C1Cl [Chloranil (8), Chloranil]
- LD50 ([2]; oral, rat, ref www.pubchem.gov): 4000 mg/kg
- IC50 [3]: 4.1 ± 0.8 µM

Compound: CCOC(=O)c1cc(=O)oc2cc(O)c(O)cc12 [esculetin-4-carboxylic acid ethyl ester]
- TC50 (median toxic concentration) [4]: > 800 µM
- EC50 [5]: 112 µM
- IC50 [6]: 46 µM

Compound: COc1cc(C(=S)N2CCOCC2)ccc1O [Vanitiolide (10)]
- IC50 [3]: 4.6 ± 0.6 µM

Compound: CCOc1ccc(C(=O)c2ccc(O)c(O)c2O)cc1 [(4-ethoxyphenyl)-(2,3,4-trihydroxyphenyl)methanone]
- IC50 [3]: 9 ± 1.5 µM

Compound: C[CH2][Hg][S]c1ccccc1C(=O)[O-].[Na+] [Thimerosal (1), Thimerosal]
- Inhibition mechanism [7]: mixed or non-competitive inhibition; also recorded: Mixed
- Ki [7]: 0.6 ± 0.2 µM
- kcat (turnover number) [7]: 0.010 s⁻¹
- Km [7]: 47 ± 8 µM
- LD50 ([2]; oral, rat, ref www.pubchem.gov): 75 mg/kg
- IC50 [3]: 0.6 ± 0.1 µM

Compound: CCOc1cccc(C(=O)c2ccc(O)c(O)c2O)c1 [(3-ethoxyphenyl)-(2,3,4-trihydroxyphenyl)methanone]
- IC50 [3]: 10.6 ± 1.3 µM

Compound: O=[N+]([O-])C(Br)(CO)CO [Bronopol (3), 2-bromo-2-nitropropane-1,3-diol]
- Ki [7, 14]: 2.5 ± 0.3 µM
- kcat (turnover number) [7, 15]: 0.010 s⁻¹
- Inhibition mechanism [7, 16]: non-competitive
- Inhibition mechanism ([7]; most probable model by SSQ, ΔAIC, ΔBIC (Dynafit), listed as bronopol (3)): mixed or non-competitive inhibition
- LD50 [8]: 180 mg/kg
- IC50 [3]: 4.4 ± 0.6 µM

Compound: COc1cc(-c2ccc(/N=N/c3ccc4c(S(=O)(=O)O)cc(S(=O)(=O)O)c(N)c4c3O)c(OC)c2)ccc1/N=N/c1ccc2c(S(=O)(=O)O)cc(S(=O)(=O)O)c(N)c2c1O [Chicago Sky Blue (12), Chicago Sky Blue]
- LD50 ([9]; IV): 2260 mg/kg
- Inhibition of HIV reverse transcriptase [10]: inhibit
- Inhibition of HIV in cellular assays [11]: inhibit
- Ki [7, 14]: 1.3 ± 0.2 µM
- kcat (turnover number) [7, 15]: 0.013 s⁻¹
- Inhibition mechanism [7, 16]: competitive inhibition
- IC50 [3]: 7.7 ± 1.6 µM

Compound: COc1ccc(C(=O)c2ccc(O)cc2)c(O)c1O [2,3,4'-trihydroxy-4-methoxybenzophenone]
- Inhibitory activity in the screen [12]: no significant inhibitory activity

Compound: O=C(OCC1OC(OC(=O)c2cc(O)c(O)c(OC(=O)c3cc(O)c(O)c(O)c3)c2)C(OC(=O)c2cc(O)c(O)c(OC(=O)c3cc(O)c(O)c(O)c3)c2)C(OC(=O)c2cc(O)c(O)c(OC(=O)c3cc(O)c(O)c(O)c3)c2)C1OC(=O)c1cc(O)c(O)c(OC(=O)c2cc(O)c(O)c(O)c2)c1)c1cc(O)c(O)c(OC(=O)c2cc(O)c(O)c(O)c2)c1 (stereo not drawn) [Tannic acid (4), Tannic acid]
- Ki [7, 14]: 1.4 ± 0.14 µM
- kcat (turnover number) [7, 15]: 0.010 s⁻¹
- Inhibition mechanism [7, 16]: Competitive
- Inhibition mechanism ([7]; most probable model by SSQ, ΔAIC, ΔBIC (Dynafit), listed as tannic acid (4)): competitive inhibition
- IC50 [6]: 3 µM
- Relative activity (initial rate / negative control) [12]: 0.0 (SD = 0.014)
- IC50 [3]: 2.1 ± 0.2 µM

Compound: C=CC1=C(C)c2cc3[nH]c(cc4nc(cc5[nH]c(cc1n2)c(C)c5CCC(=O)O)C(CCC(=O)O)=C4C)c(C)c3C=C [Protoporphyrin IX]
- IC50 [3]: 23 ± 2.4 µM

Compound: O=c1c2ccccc2[se]n1-c1ccccc1 [ebselen]
- LD50 ([2]; in rats): > 4,600 mg/kg

Compound: CC1=CC(=O)c2c(O)cccc2C1=O [Plumbagin (9), Plumbagin]
- LD50 ([9]; oral): 16 mg/kg
- IC50 [3]: 17.1 ± 9 µM

Compound: Cc1cc(-c2ccc(/N=N/c3ccc4c(S(=O)(=O)O)cc(S(=O)(=O)O)c(N)c4c3O)c(C)c2)ccc1/N=N/c1ccc2c(S(=O)(=O)O)cc(S(=O)(=O)O)c(N)c2c1O [Evans blue (11), Evans blue]
- LD50 ([9]; IP): 340 mg/kg
- Inhibition of HIV reverse transcriptase [10]: inhibit
- Inhibition of HIV in cellular assays [11]: inhibit
- Ki [7, 14]: 0.21 ± 0.02 µM
- kcat (turnover number) [7, 15]: 0.010 s⁻¹
- Inhibition mechanism [7, 16]: competitive inhibition
- Inhibition of HBV in cellular assays [13]: inhibitor
- IC50 [3]: 0.2 ± 0.06 µM

Compound: CC(=O)[O][Hg][c]1ccccc1 [Phenylmercuric acetate (2), Phenylmercuric acetate]
- Inhibition mechanism [7]: competitive inhibition
- Ki [7]: 0.11 ± 0.03 µM
- kcat (turnover number) [7]: 0.013 s⁻¹
- Km [7]: 52 µM
- LD50 ([2]; oral, rat, ref www.pubchem.gov): 41 mg/kg
- IC50 [3]: 0.4 ± 0.06 µM

Compound: CC1=C(CCC(=O)O)c2cc3[nH]c(cc4nc(cc5[nH]c(cc1n2)c(C)c5C(C)O)C(C)=C4C(C)O)c(C)c3CCC(=O)O (stereo not drawn) [Hematoporphyrin (5), Hematoporphyrin]
- LD50 ([9]; IV): 307 mg/kg
- Ki [7, 14]: 5.9 ± 0.5 µM
- kcat (turnover number) [7, 15]: 0.011 s⁻¹
- Inhibition mechanism [7, 16]: non-competitive
- Inhibition mechanism ([7]; most probable model by SSQ, ΔAIC, ΔBIC (Dynafit), listed as hematoporphyrin (5)): mixed or non-competitive inhibition
- IC50 [3]: 3.9 ± 0.6 µM
